Like-named read-outs stand apart in the source and are kept apart here.
Columns and labels:
[1] = target: T1, human M4 receptor (Homo sapiens, UniProt P08173); experiment: human M4 positive allosteric modulator potency assay; assay type: cell-based; conditions: human M4 PAM; mean of at least 3 experiments
T1 sequence (P08173 1-479): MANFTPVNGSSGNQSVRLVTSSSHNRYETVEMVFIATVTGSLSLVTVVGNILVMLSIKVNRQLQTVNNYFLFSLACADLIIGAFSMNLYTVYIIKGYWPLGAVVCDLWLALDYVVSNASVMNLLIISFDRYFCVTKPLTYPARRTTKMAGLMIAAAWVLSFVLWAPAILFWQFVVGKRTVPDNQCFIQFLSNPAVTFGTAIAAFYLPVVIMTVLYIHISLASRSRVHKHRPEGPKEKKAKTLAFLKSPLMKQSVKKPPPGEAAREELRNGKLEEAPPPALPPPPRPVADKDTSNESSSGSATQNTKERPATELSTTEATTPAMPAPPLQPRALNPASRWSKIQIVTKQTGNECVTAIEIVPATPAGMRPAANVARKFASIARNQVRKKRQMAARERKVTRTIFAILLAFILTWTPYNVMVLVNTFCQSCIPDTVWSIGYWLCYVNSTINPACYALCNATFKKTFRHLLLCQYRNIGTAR

[2] = in vitro PK: predicted hepatic clearance, rat; assay type: in vitro ADME; conditions: for predicted clearance in the rat (CLHEP), in words: in vitro PK prediction; for rCLHEP: in vitro predicted hepatic clearance
[3] = target: T2, hM2 (Homo sapiens, UniProt P08172); experiment: muscarinic selectivity hM2; assay type: cell-based
T2 sequence (P08172 1-466): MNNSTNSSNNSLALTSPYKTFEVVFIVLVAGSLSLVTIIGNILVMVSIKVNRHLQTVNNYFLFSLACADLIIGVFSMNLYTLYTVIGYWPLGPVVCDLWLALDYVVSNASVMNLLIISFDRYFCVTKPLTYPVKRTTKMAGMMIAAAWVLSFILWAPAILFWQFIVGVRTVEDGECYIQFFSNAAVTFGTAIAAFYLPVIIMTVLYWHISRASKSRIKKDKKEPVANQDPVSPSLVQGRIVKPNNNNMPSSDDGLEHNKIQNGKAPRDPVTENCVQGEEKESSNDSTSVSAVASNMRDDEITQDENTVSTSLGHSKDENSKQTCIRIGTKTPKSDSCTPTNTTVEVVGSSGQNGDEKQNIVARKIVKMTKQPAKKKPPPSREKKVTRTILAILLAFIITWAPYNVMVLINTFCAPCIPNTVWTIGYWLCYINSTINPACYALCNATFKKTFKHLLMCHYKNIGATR

[4] = rat equilibrium dialysis plasma protein binding; assay type: in vitro ADME; conditions: fraction unbound
[5] = target: T3, rM2 (Rattus norvegicus, UniProt P10980); experiment: muscarinic selectivity rM2; assay type: cell-based
T3 sequence (P10980 1-466): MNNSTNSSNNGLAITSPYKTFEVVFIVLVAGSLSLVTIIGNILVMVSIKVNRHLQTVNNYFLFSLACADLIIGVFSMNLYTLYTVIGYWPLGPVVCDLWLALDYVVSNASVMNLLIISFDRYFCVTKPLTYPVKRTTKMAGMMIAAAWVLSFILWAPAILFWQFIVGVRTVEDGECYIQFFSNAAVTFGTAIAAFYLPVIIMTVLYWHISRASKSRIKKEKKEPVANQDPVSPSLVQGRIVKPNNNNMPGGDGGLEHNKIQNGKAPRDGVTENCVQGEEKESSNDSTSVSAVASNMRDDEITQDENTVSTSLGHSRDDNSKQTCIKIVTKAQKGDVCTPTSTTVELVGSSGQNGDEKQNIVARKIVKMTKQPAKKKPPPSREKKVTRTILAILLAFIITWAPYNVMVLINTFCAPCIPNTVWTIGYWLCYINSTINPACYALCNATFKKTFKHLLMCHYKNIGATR

[6] = in vitro PK: predicted hepatic clearance, human; assay type: in vitro ADME
[7] = test system: other four mAChR subtypes (M1, M2, M3, M5); experiment: selectivity against the other four mAChR subtypes; assay type: cell-based; conditions: read-out: activity against all four other mAChR subtypes
[8] = target: T4, rat M4 receptor (Rattus norvegicus, UniProt P08485); conditions: read-out: rat M4 potency; cited from earlier work
T4 sequence (P08485 1-478): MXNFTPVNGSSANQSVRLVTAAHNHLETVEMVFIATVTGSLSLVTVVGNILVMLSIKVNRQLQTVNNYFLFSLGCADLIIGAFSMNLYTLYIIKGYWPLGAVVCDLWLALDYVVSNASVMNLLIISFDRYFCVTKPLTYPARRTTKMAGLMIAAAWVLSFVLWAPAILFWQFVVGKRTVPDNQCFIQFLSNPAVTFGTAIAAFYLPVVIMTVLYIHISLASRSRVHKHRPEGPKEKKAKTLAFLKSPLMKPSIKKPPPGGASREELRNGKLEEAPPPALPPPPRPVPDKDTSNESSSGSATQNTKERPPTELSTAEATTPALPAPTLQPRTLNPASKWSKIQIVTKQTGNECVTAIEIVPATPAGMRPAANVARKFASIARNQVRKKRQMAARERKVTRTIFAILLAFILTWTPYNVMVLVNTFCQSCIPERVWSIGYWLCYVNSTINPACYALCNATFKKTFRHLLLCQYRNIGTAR

[9] = target: T1, human M4 receptor; conditions: cited from earlier work

Row | Compound | pEC50 ± SEM [1] | other results
1 | Cc1nc2sc(C(=O)NCc3cccc(F)c3F)c(N)c2c(C)c1Cl [Compound 2] | 6.91 ± 0.05 | –
2 | Cc1nc2sc(C(=O)NC3CC3)c(N)c2c(C)c1Cl [Compound 3] | 7.11 ± 0.32 | predicted clearance in the rat (CLHEP), in words [2]: high clearance; rCLHEP [2]: 51.0 mL/min/kg; EC50 [3]: ~600 nM; rPPB (%fu) [4]: ~ 2%; EC50 [5]: ~600 nM; hCLHEP [6]: 13.9 mL/min/kg
3 | Cc1nc2sc(C(=O)NCc3ccncc3)c(N)c2c(C)c1Cl [Compound 4, 3-amino-5-chloro-4,6-dimethyl-N-(pyridinyl-4-methyl)thieno[2,3-b]pyridine-2-carboxamide] | – | predicted clearance in the rat (CLHEP), in words [2]: high clearance; rCLHEP [2]: 55.2 mL/min/kg; EC50 [7]: > 30 µM
4 | Cc1cc(CNC(=O)c2sc3nc(C)c(Cl)c(C)c3c2N)ccn1 [Compound 6] | 7.21 ± 0.05 | –
5 | Cc1nc2sc(C(=O)NC(C)c3cccnc3)c(N)c2c(C)c1Cl (centres unmarked) [Compound 8] | 6.17 ± 0.08 | –
6 | Cc1nc2sc(C(=O)NC(C)c3ccccn3)c(N)c2c(C)c1Cl (centres unmarked) [Compound 10] | 5.86 ± 0.07 | –
7 | Cc1nc2sc(C(=O)NCCc3ccncc3)c(N)c2c(C)c1Cl [Compound 11] | 6.89 ± 0.09 | –
8 | Cc1nc2sc(C(=O)NCCc3ccccn3)c(N)c2c(C)c1Cl [Compound 13] | 6.07 ± 0.06 | –
9 | Cc1nc2sc(C(=O)NCc3ccncn3)c(N)c2c(C)c1Cl [Compound 15] | 6.57 ± 0.06 | –
10 | Cc1nc2sc(C(=O)NCc3ccnnc3)c(N)c2c(C)c1Cl [Compound 17] | 6.49 ± 0.08 | –
11 | Cc1nc2sc(C(=O)NCc3ccc4c(c3)OCO4)c(N)c2c(C)c1Cl [Compound 18] | 7.09 ± 0.08 | –
12 | Cc1nc2sc(C(=O)NCc3ccccc3)c(N)c2c(C)c1Cl [Compound 19] | 6.97 ± 0.05 | –
13 | Cc1nc2sc(C(=O)NCc3ccc(F)c(F)c3)c(N)c2c(C)c1Cl [Compound 20] | 6.81 ± 0.28 | –
14 | Cc1nc2sc(C(=O)NCc3ccccc3Cl)c(N)c2c(C)c1Cl [Compound 21] | 6.81 ± 0.07 | –
15 | Cc1ccc(CNC(=O)c2sc3nc(C)c(Cl)c(C)c3c2N)cc1 [Compound 22] | 6.98 ± 0.10 | –
16 | Cc1nc2sc(C(=O)NCc3ccc(Cl)cc3)c(N)c2c(C)c1Cl [Compound 23] | 6.75 ± 0.14 | –
17 | Cc1nc2sc(C(=O)NCc3nccs3)c(N)c2c(C)c1Cl [Compound 24] | 6.60 ± 0.07 | –
18 | Cc1nc2sc(C(=O)NCc3ccc(C(F)(F)F)cc3)c(N)c2c(C)c1Cl [Compound 25] | 5.76 ± 0.27 | –
19 | Cc1nc2sc(C(=O)NC3CCOC3)c(N)c2c(C)c1Cl (centres unmarked) [Compound 29] | 7.28 ± 0.07 | –
20 | Cc1nc2sc(C(=O)NC3COC3)c(N)c2c(C)c1Cl [Compound 30] | 5.70 ± 0.24 | –
21 | Cc1nc2sc(C(=O)NC(C)C)c(N)c2c(C)c1Cl [Compound 31] | 6.83 ± 0.06 | –
22 | Cc1nc2sc(C(=O)NC3CCCCC3)c(N)c2c(C)c1Cl [Compound 32] | 6.65 ± 0.03 | –
23 | Cc1nc2sc(C(=O)NC(C)(C)C)c(N)c2c(C)c1Cl [Compound 34] | 6.51 ± 0.05 | –
24 | Cc1nc2sc(C(=O)NCCC3CCCN3C)c(N)c2c(C)c1Cl (centres unmarked) [Compound 36] | 6.03 ± 0.07 | –
25 | COc1nc2sc(C(=O)NC3CC3)c(N)c2c(C)c1Cl [LY2033298] | – | EC50 [8]: 629 nM; EC50 ([9]; read-out: human M4 potency, human receptor): 65 nM
26 | COc1ccc(C)c2sc(NC(=O)c3ccncc3)nc12 [ML293] | – | EC50 ([9]; read-out: hM4 potency, previously reported probe, ref 9d): 1300 nM
